Experiment [1] relates to boar acrosin. Put plainly: Spectrophotometric acrosin assay with substrate BAEE. Format: biochemical. The protocol: The effects of alpha-1-antitrypsin on purified acrosin were measured spectrophotometrically using the acrosin substrate N-α-benzoyl-L-arginine ethyl ester (BAEE) essentially as described by Polakoski and Zaneveld (Methods in Enzymology 45 (part B): 325, 1976). Boar acrosin was combined with AAT in 0.025M Tris, pH 7.0, containing BAEE. A control sample lacked AAT. The absorbance of the reaction mixture was monitored at 253 nm.
(§1) The nature of the reaction between AAT and acrosin was examined by electrophoresis under reducing and denaturing conditions and by Western blot analysis. AAT (2 μg) and activated boar proacrosin (5 μg) were incubated in a buffer containing 0.1M Tris, pH 8.0. Acrosin activity was inhibited 48% in the BAEE assay. […] Thus, all inhibition is accounted for by the formation of a covalent complex.

For experiment [2], the system named is boar acrosin. Put plainly: SDS-PAGE / Western blot analysis of AAT-acrosin reaction mixture. Format: binding. How it is done:
Lanes 1 and 6, proacrosin (^~ 5 ug) autoactivated to acrosin; Lanes 2 and 7, alpha-1-antrypsin (^~ 2 ug); Lanes 3 and 8, alpha-1-antitrypsin (~2 ug)+activated proacrosin (~5 ug) in 0.1M Tris, pH 8.0; Lanes 4 and 9, alpha-1-antitrypsin (^~ 2 ug)+activated proacrosin (^~ 5 ug) in 0.1M Tris, 0.05M CaCl2, pH 8.0; Lane 5, molecular weight markers.
as §1
Background: Immunoblotting shows a protein as a band on a membrane.

In experiment [3] the test system is sperm and ova of hybrid mouse strain B6D2F1. Description: In vitro fertilization assay with mouse sperm and oocytes. Format: cell-based. How it is done:
The ability of AAT to inhibit fertilization in vitro was tested using sperm and ova obtained from the hybrid mouse strain B6D2F1. This strain was chosen because a 75% to 85% in vitro fertilization rate is routine and the female mice respond well to superovulatory drugs, producing an average of 30 normal oocytes per animal.
Oocytes were collected from 3- to 4-week-old female B6D2F1 mice. The animals received 5 international units of pregnant mare's serum gonadotropin to initiate follicular growth. After 48 hours, 5 international units of human chorionic gonadotropin were given to effect ovulation. Twelve hours after the last injection, oviducts were removed and oocytes were collected by puncture of the ampullary region, allowing the release of cumulus enclosed oocytes (cumulus clots) into 0.2 ml Fraser's medium (Fraser and Drury, Biol. Reprod. 13: 513-518, 1975) under paraffin oil. To randomize oocyte distribution, all cumulus clots were collected into one dish of medium and then placed into the fertilization medium. Oocytes were collected, on average, 15 minutes before sperm addition.
Sperm were collected from the cauda epididymus of 9- to 14-week-old male B6D2F1 mice of proven fertility. Each epididymus contained approximately 40 million sperm with 70% to 80% motility. […]
After the one-hour capacitation period, the sperm were counted by hemocytometer and […] sperm cells/ml were added to 0.2 ml Fraser's, medium (free of alpha-1-antitrypsin or containing AAT at the above concentrations) containing cumulus cell-enclosed oocytes. […]
The above experiments were designed to analyze the effective inhibitory concentration of alpha-1-antitrypsin and to detect differences in fertilization rate resulting from the capacitation/acrosome reaction state of the sperm. […] Data are expressed as percent oocytes with two pronuclei and a second polar body. […]

The next experiment concerns female mice. Put plainly: In vivo inhibition of fertilization, intravaginal cream in female mice. To be noted: individual mice 1-5; cream 100 mg AAT/20 ml, 100 μl intravaginal prior to copulation; sacrificed 12 days after copulation. Further details: species or system mouse. How it is done:
For in vivo testing, a cream was prepared by dissolving 100 mg of recombinant AAT in 5 ml of phosphate-buffered saline (PBS; obtained from Sigma Chemical Co.). This solution was emulsified with 15 ml of K-Y Jelly (Johnson & Johnson) to give a final AAT concentration of 100 mg/20 ml.
The cream (100 μl) was administered intravaginal to female mice using an Eppendorf pipette prior to copulation. Control females were untreated or received a control cream consisting of 100 mg bovine serum albumin in 5 ml of PBS plus 15 ml of K-Y Jelly. Copulation was confirmed in two of five BSA controls and four of five experimental mice. Mice were sacrificed 12 days after copulation and the number of fetuses was noted. Results, shown in Table 1, indicate that alpha-1-antitrypsin is an effective contraceptive agent.

The test system of another experiment is human acrosin. Particulars: cited from earlier work.
The test system of experiment [4] is boar acrosin. To be noted: cited from earlier work.
A further experiment concerns acrosin. Particulars: cited from earlier work.
For the next experiment, the system named is fertilization in vitro. Particulars: cited from earlier work.

Take alpha-1-antitrypsin [AAT]: the “Acrosin activity inhibited in the BAEE assay” value in the experiment with boar acrosin [1] (AAT 2 μg + activated boar proacrosin 5 μg, 0.1M Tris, pH 8.0) was determined as 48%. For the same substance, the “inhibition of acrosin in the test system (BAEE hydrolysis, absorbance at 253 nm)” value with boar acrosin [1] (boar acrosin combined with AAT in 0.025M Tris, pH 7.0, containing BAEE, amount of AAT tested) is recorded as “complete inhibition”. The “complex formation between inhibitor and enzyme (Western blot)” value in the experiment with boar acrosin [2] (AAT 2 μg + activated boar proacrosin 5 μg, 0.1M Tris, pH 8.0, reducing and denaturing 12% SDS-PAGE) is recorded as “formation of a high molecular weight complex”; in the experiment with boar acrosin [2] (same analysis in the presence of 0.05M CaCl2), “essentially identical results”. Moreover, the blocking of fertilization result in experiment [3] (AAT in both capacitation and fertilization media, all concentrations except 0.01 mM (0.05-1 mM), FIG. 4) was “effective in blocking fertilization”. For the same substance, the “concentrations of AAT effective in blocking fertilization” value in experiment [3] (capacitation in AAT-containing medium, fertilization in control medium, FIG. 3) is “greater than 0.2 mM”. In addition, in experiment [3] (sperm capacitated in control medium, fertilization in AAT-containing medium, all concentrations tested (0.01-1 mM), control fertilization rate 77%, FIG. 2), the “decrease of fertilization rate (percent oocytes with two pronuclei and a second polar body)” value was “about 50%”. For the same substance, the “Number of Fetuses” value in the experiment on female mice stood at 0. Also, the “inhibition of human acrosin in vitro” value with human acrosin was “inhibit”. In the experiment with boar acrosin [4], the “inhibition of boar acrosin in vitro” value is “inhibit”.

Turning to soybean trypsin inhibitor, the “effect on acrosin activity” value in the experiment on acrosin was “block acrosin activity”. The “effect on fertilization in vitro” value in the experiment with fertilization in vitro is reported as “prevent fertilization in vitro”.
